Assay results as given in patent US10654834B2 (Venenum Biodesign, LLC, priority 2016, dated 2020).

Experiments:
Mouse STC-1 cells = experiment: STC-1 GLP-1 assay (GLP-1 secretion); type: cell-based; details: Mouse STC-1 cells, GLP-1 secretion, 2 h; read-out: Mouse STC-1 HTRF GLP-1 Activity (EC50)
How it was run: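 Secreted active GLP-1 was measured by HTRF after overnight room-temperature incubation of supernatant with the conjugates. Supernatants came from a 2 h, 37° C. compound exposure (12-point half-log series) in HBSS with DPP-IV and protease inhibitors and 0.1% fatty acid free BSA. STC-1 cells had been seeded two days earlier in stripped-serum DMEM; EC50 reported.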

[1] = Pharmacokinetic profile in mice after oral gavage; type: in vivo, mouse; details: mouse; fasted male Hilltop mice, 10 mg/kg oral gavage, plasma; read-out: Cmax
How it was run: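 Plasma exposure (Cmax, AUC) by non-compartmental analysis of LC-MS/MS data, orbital blood taken at 0, 0.25, 0.5, 1, 2 and 4 h, each value averaging three mice. Dosing: 10 mg/kg oral gavage to overnight-fasted male Hilltop mice (8 weeks), vehicle PEG400/CMC/Tween-80.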

Compound	EC50 (Mouse STC-1 cells)	Cmax [1]
N#Cc1ccc(CCNC(=O)[C@@H]2CCN2c2cc(N3CCC(CCNC(=O)NCCOCCNC(=O)NCCS(=O)(=O)O)CC3)nc(C(F)(F)F)n2)cc1 [Compound 358, (S)-15-(1-(6-(2-((4-cyanophenethyl)carbamoyl)azetidin-1-yl)-2-(trifluoromethyl)pyrimidin-4-yl)piperidin-4-yl)-4,12-dioxo-8-oxa-3,5,11,13-tetraazapentadecane-1-sulfonic acid]	< 100 nM	3.4 ng/mL
N#Cc1ccc(CCNC(=O)[C@@H]2CCN2c2cc(N3CCC(CCNC(=O)NCCOCCNC(=O)NCCC(=O)O)CC3)nc(C(F)(F)F)n2)cc1 [Compound 360, (S)-1-(1-(6-(2-((4-cyanophenethyl)carbamoyl)azetidin-1-yl)-2-(trifluoromethyl)pyrimidin-4-yl)piperidin-4-yl)-4,12-dioxo-8-oxa-3,5,11,13-tetraazahexadecan-16-oic acid]	< 100 nM	0.5 ng/mL
N#Cc1ccc(CCNC(=O)[C@@H]2CCN2c2cc(N3CCC(CCCC(=O)NCP(=O)(O)O)CC3)nc(C(F)(F)F)n2)cc1 [Compound 362, (S)-((4-(1-(6-(2-((4-cyanophenethyl)carbamoyl)azetidin-1-yl)-2-(trifluoromethyl)pyrimidin-4-yl)piperidin-4-yl)butanamido)methyl)phosphonic acid]	< 100 nM	36 ng/mL
N#Cc1ccc(CCNC(=O)[C@@H]2CCN2c2cc(N3CCC(CCNS(=O)(=O)CCNC(=O)[C@@H](N)CS(=O)(=O)O)CC3)nc(C(F)(F)F)n2)cc1 [Compound 363, (R)-2-amino-3-((2-(N-(2-(1-(6-((S)-2-((4-cyanophenethyl)carbamoyl)azetidin-1-yl)-2-(trifluoromethyl)pyrimidin-4-yl)piperidin-4-yl)ethyl)sulfamoyl)ethyl)amino)-3-oxopropane-1-sulfonic acid]	< 100 nM	0.5 ng/mL
N#Cc1ccc(CCNC(=O)[C@@H]2CCCN2c2cc(N3CCC(CCNc4c(NCCS(=O)(=O)O)c(=O)c4=O)CC3)nc(C(F)(F)F)n2)cc1 [Compound 367, (S)-2-((2-((2-(1-(6-(2-((4-cyanophenethyl)carbamoyl)pyrrolidin-1-yl)-2-(trifluoromethyl)pyrimidin-4-yl)piperidin-4-yl)ethyl)amino)-3,4-dioxocyclobut-1-en-1-yl)amino)ethanesulfonic acid]	100 to 999 nM	1.5 ng/mL
N#Cc1ccc(CCNC(=O)[C@@H]2CCCN2c2cc(N3CCC(CCNc4c(NCCC(=O)O)c(=O)c4=O)CC3)nc(C(F)(F)F)n2)cc1 [Compound 368, (S)-3-((2-((2-(1-(6-(2-((4-cyanophenethyl)carbamoyl)pyrrolidin-1-yl)-2-(trifluoromethyl)pyrimidin-4-yl)piperidin-4-yl)ethyl)amino)-3,4-dioxocyclobut-1-en-1-yl)amino)propanoic acid]	100 to 999 nM	2.5 ng/mL
N#Cc1ccc(CCNC(=O)[C@@H]2CCCN2c2cc(N3CCC(CCNc4c(NCP(=O)(O)O)c(=O)c4=O)CC3)nc(C(F)(F)F)n2)cc1 [Compound 369, (S)-(((2-((2-(1-(6-(2-((4-cyanophenethyl)carbamoyl)pyrrolidin-1-yl)-2-(trifluoromethyl)pyrimidin-4-yl)piperidin-4-yl)ethyl)amino)-3,4-dioxocyclobut-1-en-1-yl)amino)methyl)phosphonic acid]	100 to 999 nM	1.7 ng/mL
N#Cc1ccc(CCNC(=O)[C@@H]2CCCN2c2cc(N3CCC(CCNC(=O)NCP(=O)(O)O)CC3)nc(C(F)(F)F)n2)cc1 [Compound 372, (S)-((3-(2-(1-(6-(2-((4-cyanophenethyl)carbamoyl)pyrrolidin-1-yl)-2-(trifluoromethyl)pyrimidin-4-yl)piperidin-4-yl)ethyl)ureido)methyl)phosphonic acid]	< 100 nM	105 ng/mL
